From US20240246969A1, “HETEROCYCLIC DERIVATIVES AS CAMKK2 INHIBITORS” (Bristol-Myers Squibb Company, priority 2021, published 2024)
Like-named read-outs stand apart in the source and are kept apart here. Each block holds one molecule with its values, some of them ahead of it.

Tests used:
2C9 = 2C9 (Homo sapiens, UniProt P11712); assay: CYP450 2C9 inhibition; assay type: in vitro ADME
PPB, human (h) = assay type: in vitro ADME; conditions: plasma, second value of (m, h)
PPB, mouse (m) = assay type: in vitro ADME; conditions: plasma, first value of (m, h)
[1] = Microsomes stability, human (h); assay type: in vitro ADME; conditions: second value of (m, h)
pAMPK in A427 = assay: A427 pAMPK MOA assay; assay type: cell-based; conditions: Homo sapiens, A-427
PK = conditions: in vivo; read-out: PK % F
[2] = Microsomes stability, mouse (m); assay type: in vitro ADME; conditions: first value of (m, h)
CEREP = CEREP panel; conditions: @ 10 uM
CYP450 = CYP450 inhibition; assay type: in vitro ADME; conditions: all isoforms except 2C9
CaMKK1 = CaMKK1 (Homo sapiens, UniProt Q8N5S9); assay: CaMKK1 IC50; assay type: binding
CaMKK1, sequence (Q8N5S9 whole entry, species assumed): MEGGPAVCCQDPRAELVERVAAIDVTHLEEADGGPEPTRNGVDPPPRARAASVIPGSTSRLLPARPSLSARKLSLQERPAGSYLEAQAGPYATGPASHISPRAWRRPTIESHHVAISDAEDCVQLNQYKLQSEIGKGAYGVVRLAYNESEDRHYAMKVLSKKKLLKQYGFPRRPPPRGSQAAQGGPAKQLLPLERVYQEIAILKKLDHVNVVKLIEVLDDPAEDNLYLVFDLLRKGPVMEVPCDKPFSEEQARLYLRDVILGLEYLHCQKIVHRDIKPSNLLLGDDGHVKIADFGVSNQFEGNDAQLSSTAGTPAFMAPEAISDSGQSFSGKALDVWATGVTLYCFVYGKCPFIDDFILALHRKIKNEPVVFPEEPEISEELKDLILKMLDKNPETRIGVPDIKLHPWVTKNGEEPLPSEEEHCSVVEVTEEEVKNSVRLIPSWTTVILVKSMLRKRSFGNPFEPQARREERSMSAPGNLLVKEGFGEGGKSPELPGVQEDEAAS

[3] = test system: phosphorylation of CaMKK2 substrate AMPK at Thr172 in A549 lung carcinoma cells; assay: Cell-based phosphorylation assay (Phospho-AMPK Thr172 HTRF); conditions: Homo sapiens; for EC50: A549, read-out: A549 pAMPK MOA EC50; for IC50: A549 cells, compounds 4 hours, 3 uM Calcium Ionophore 30 minutes, read-out: Cellular IC50 Phosphorylation
Method: Cellular CaMKK2 inhibition by compounds was measured by monitoring the phosphorylation of CaMKK2 substrate AMPK at Thr172 in A549 lung carcinoma cells (ATCC) using CISBIO Phospho-AMPK (Thr172) HTRF kit. A549 cells were plated in 96 well plates at 8000 cells/well in DMEM+10% FBS+1× pen/step+1×NEAA and incubated at 37° C. overnight in a CO2 incubator. Cells were then treated with compounds for 4 hours. After cells were stimulated by 3 uM Calcium Ionophore (Sigma) at 37° C. for 30 minutes, cells were washed and then lysed with cell lysis buffer (CisBio) for 30 minutes. […] Plates were incubated overnight and then read using HTRF mode by BMG PHERAstarFS.

CaMKK2 = CaMKK2 (Homo sapiens, UniProt Q96RR4); assay: CaMKK2 binding assay (LanthaScreen TR-FRET)
CaMKK2, sequence (Q96RR4 whole entry): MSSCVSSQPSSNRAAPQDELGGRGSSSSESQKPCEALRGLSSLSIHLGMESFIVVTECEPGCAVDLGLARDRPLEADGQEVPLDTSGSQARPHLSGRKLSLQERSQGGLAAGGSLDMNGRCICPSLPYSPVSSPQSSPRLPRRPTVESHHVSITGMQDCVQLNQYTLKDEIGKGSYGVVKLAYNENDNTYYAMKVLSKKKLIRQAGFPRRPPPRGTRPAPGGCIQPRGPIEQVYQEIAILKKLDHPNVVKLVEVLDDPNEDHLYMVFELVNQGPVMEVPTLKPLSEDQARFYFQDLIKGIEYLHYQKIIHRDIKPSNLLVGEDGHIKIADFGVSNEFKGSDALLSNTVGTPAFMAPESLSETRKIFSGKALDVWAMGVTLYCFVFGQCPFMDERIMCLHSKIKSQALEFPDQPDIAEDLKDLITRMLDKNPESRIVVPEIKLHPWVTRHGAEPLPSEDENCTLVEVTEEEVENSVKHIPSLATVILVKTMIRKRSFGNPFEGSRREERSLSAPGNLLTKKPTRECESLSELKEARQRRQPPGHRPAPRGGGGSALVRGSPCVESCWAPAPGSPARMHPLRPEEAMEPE
Method: The ability of test compounds to bind and inhibit the activity of CaMKK2 were determined using a binding assay using LanthaScreent (Thermofisher) detection reagents in a 384-well plate format using the following assay buffer: 50 mM HEPES (pH7.5), 10 mM MgCl2, 1 mM EGTA, and 0.01% Brij-35.
A 10-point serial dilution of inhibitor compound in 0.5% DMSO was added to each well of the plate. The final assay volume in well was 15 uL. […] A ratio was calculated from the 2 readouts and fitted to a 4-parameter fit to determine the binding IC50.

KSP (72) kinases = test system: KSP (72) kinases; set-up: dose or concentration left out as unconfirmed; conditions: of 72 kinases
[4] = test system: A549 lung carcinoma cells; assay: Cell proliferation assay (CellTiter 96 Aqueous); assay type: cell-based; conditions: Homo sapiens, compounds 48 hours, read-out: Cellular IC50 Proliferation
Method: Proliferation was measured using CellTiter 96 Aqueous Non-Radioactive Cell Proliferation Assay Kit (Promega), which determines the number of viable cells in culture based on quantitation of dehydrogenase enzymes, as an indicator of metabolically active cells. A549 lung carcinoma cells were seeded at 2,000 cells/well in a 96-well tissue culture treated plate in DMEM+10% FBS+1× pen/step+1×NEAA and incubated at 37° C. overnight in a CO2 incubator. Cells were treated with compounds for 48 hours. Then viability was measured using CellTiter 96 Aqueous Non-Radioactive Cell Proliferation Assay Kit (Promega). Detection was performed using Biotek Cytation 5 Cell Imaging Multi Mode plate reader.

2C9, sequence (P11712 whole entry): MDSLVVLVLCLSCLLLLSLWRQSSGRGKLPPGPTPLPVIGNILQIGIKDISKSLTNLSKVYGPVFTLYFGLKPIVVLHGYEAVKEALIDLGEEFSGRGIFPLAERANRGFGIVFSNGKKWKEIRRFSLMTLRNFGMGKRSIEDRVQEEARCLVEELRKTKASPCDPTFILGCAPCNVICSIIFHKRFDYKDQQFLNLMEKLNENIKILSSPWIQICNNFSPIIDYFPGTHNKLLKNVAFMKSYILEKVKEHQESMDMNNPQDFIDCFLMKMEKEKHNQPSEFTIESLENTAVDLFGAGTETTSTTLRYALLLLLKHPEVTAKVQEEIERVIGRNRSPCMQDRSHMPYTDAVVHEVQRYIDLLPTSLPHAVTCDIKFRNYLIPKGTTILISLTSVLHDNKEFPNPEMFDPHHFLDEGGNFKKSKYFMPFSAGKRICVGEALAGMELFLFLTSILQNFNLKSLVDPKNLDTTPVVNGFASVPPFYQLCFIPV

IC50 [3]: 100 to 1000 nM
IC50 (CaMKK2): < 100 nM
IC50 [4]: > 10000 nM
Compound: CCNc1cc(-n2ccc3ncc(-c4ccc5nn(C)cc5c4)nc32)ccc1C(=O)O [Example 13, 2-(Ethylamino)-4-(3-(2-methyl-2H-indazol-5-yl)-5H-pyrrolo[2,3-b]pyrazin-5-yl)benzoic Acid]

IC50 [3]: 100 to 1000 nM
IC50 (CaMKK2): < 100 nM
IC50 [4]: > 10000 nM
Compound: O=C(O)c1ccc(-n2ccc3ncc(C4CC4)nc32)cc1C1CCCC1 [Example 18, 2-Cyclopentyl-4-(3-cyclopropyl-5H-pyrrolo[2,3-b]pyrazin-5-yl)benzoic Acid]

IC50 [3]: < 100 nM
IC50 (CaMKK2): 100 to 1000 nM
IC50 [4]: > 10000 nM
Compound: Cc1cc(C)cc(-c2cnc3ccn(-c4ccc(C(=O)O)c(OC5CNC5)c4)c3n2)c1 [Example 24, 2-(azetidin-3-yloxy)-4-(3-(3,5-dimethylphenyl)-5H-pyrrolo[2,3-b]pyrazin-5-yl)benzoic Acid]

More lines, now with the values behind:

Compound: CCOc1ccc2c(-c3ccc(C(=O)O)c(C4CCCC4)c3)ncnc2c1 [Example 5.1, 2-cyclopentyl-4-(7-ethoxyquinazolin-4-yl)benzoic acid]
CYP450 2C9 (2C9): 2C9 (4 mM)
fraction unbound (PPB, human (h)): 0.01
fraction unbound (PPB, mouse (m)): 0.015
Microsomes (h) Stability60 [1]: 100%
Microsomes (h) UGT [1]: 89%
EC50 (pAMPK in A427): 74 nM
bioavailability (PK): 80%
Microsomes (m) Stability60 [2]: Stability60: 96, %
Microsomes (m) UGT [2]: 79%
CEREP (CEREP): no inhibition >50%
CYP450 (CYP450): > 30 µM

Compound: CCOc1cc(F)c2c(-c3ccc(C(=O)O)c(C4CCCC4)c3)ncnc2c1 [Example 5.2, 2-cyclopentyl-4-(7-ethoxy-5-fluoroquinazolin-4-yl)benzoic acid]
IC50 (CaMKK1): 12 nM

Compound: CCOc1ccc2c(-c3ccc(C(=O)O)c(C4CCCC4)c3)ccnc2c1 [Example 5.3, 2-cyclopentyl-4-(7-ethoxyquinolin-4-yl)benzoic acid]
fraction unbound (PPB, human (h)): < 0.01
fraction unbound (PPB, mouse (m)): < 0.01
Microsomes (h) CYP/UGT60 [1]: 67%
EC50 [3]: 60 nM
EC50 (pAMPK in A427): 30 nM
IC50 (CaMKK1): 1.7 nM
bioavailability (PK): 58%
Microsomes (m) CYP/UGT60 [2]: CYP/UGT60: 66, %
IC50 (CaMKK2; Table 8): 1.5 nM
Kinase Selectivity KSP (72) (KSP (72) kinases): 6 of 72 @

Compound: CCOc1ccc2c(-c3ccc(C(=O)O)c(C(C)C)c3)c(F)cnc2c1 [Example 5.4, 4-(7-ethoxy-3-fluoroquinolin-4-yl)-2-isopropylbenzoic acid]
EC50 [3]: 79 nM
IC50 (CaMKK1): 1.7 nM
IC50 (CaMKK2; Table 8): 1.1 nM
Kinase Selectivity KSP (72) (KSP (72) kinases): 6 of 72 @

Compound: N#CNC(=O)c1ccc(-n2ccc3ncc(C4CC4)nc32)cc1C1CCCC1 [Example 19, N-Cyano-2-cyclopentyl-4-(3-cyclopropyl-5H-pyrrolo[2,3-b]pyrazin-5-yl)benzamide]
IC50 [3]: 1000 to 10000 nM
IC50 (CaMKK2): < 100 nM
IC50 [4]: > 10000 nM

Compound: c1cc(-c2nn[nH]n2)c(C2CCCC2)cc1-n1ccc2ncc(C3CC3)nc21 [Example 20, 5-(3-cyclopentyl-4-(2H-tetrazol-5-yl)phenyl)-3-cyclopropyl-5H-pyrrolo[2,3-b]pyrazine]
IC50 [3]: > 10000 nM
IC50 (CaMKK2): < 100 nM
IC50 [4]: > 10000 nM
